Measurements reported in patent US20170296459A1, “METHOD OF IMPROVING THE APPEARANCE OF PERIORBITAL DYSCHROMIA” (The Procter & Gamble Company, priority 2016, published 2017).

Test system: B16-F1 mouse melanoma cell line
Assay: B16 melanin synthesis inhibition assay
Format: cell-based
Details: B16-F1 cells, OD at 410 nm
Description: In this example, a commercially available B16-F1 mouse melanoma cell line from American Tissue Culture Collection, Virginia, USA was employed in a conventional melanin synthesis inhibition assay. The cell culture medium used in the assay is 500 mL of Dulbecco's Modified Eagle's Medium (DMEM), 50 mL Fetal Bovine Serum (FBS), and 5 mL of penicillin-streptomycin liquid. B16-F1 cells that are cultured in this medium and grown to greater than 90% confluency will synthesize melanin. While not intending to be bound by any theory, it is hypothesized that the melanin synthesis is stimulated by the culture medium and/or stress induced by growth to a high confluency. […] Equipment used in the assay include a CO2 incubator, such as a Forma Series Model 3110 by Therma Scientific, Massachusetts, USA; a hemocytometer, such as a Bright Line model by Hauser Scientific, Pennsylvania, USA; and a UV-Visible Spectrum Plate Reader, such as a SpectraMax250 from Molecular Devices, California, USA. […] Day 3: The cells from the T-150 flask are trypsinized, and the concentration of cells is determined using the hemacytometer. […] Read the 96 well plate using the UV-Vis Plate Reader at 410 nm to optically measure the amount of melanin produced between wells that are treated with the fava bean extract and control wells that are not. […] The concentration of test agent needed to provide the IC 50 is recorded.

Concentration Needed for IC 50 [v/v] | SMILES
0.008 | Oc1ccc(OC2CCCCO2)cc1 (centres unmarked) [Deoxyarbutin]
0.01 | O=c1cc(CO)occ1O [Kojic Acid]
